Laboratory results taken from patent US20240308996A1, “PYRIDOPYRIDINES AND DERIVATIVES THEREOF AS SELECTIVE KINASE INHIBITORS” (University of Sharjah, priority 2023, published 2024).

How the values were obtained:
Type in all cases: cell-based
HCC-2998 = assay: NCI-60 cell line panel: HCC-2998; conditions: Colon Cancer
Method: (§1) It was carried out at the NCI, Bethesda, MD, USA, utilizing their standard protocol.

Hep3B = assay: MTT assay, Hep3B HCC cell line; conditions: Homo sapiens, 48 h, mean of triplicate assays ± SEM
Method: (§2) Two HCC cell lines (Hep3B and HepG2) were used for screening the antiproliferative activity of the synthesized compounds. The cell lines were obtained from the European Collection of Cell Cultures (ECACC, UK) and maintained in Dulbecco's Modified Eagle Medium (DMEM: Sigma-Aldrich) supplemented with 10% fetal bovine serum (FBS) and 1% penicillin/streptomycin and incubated at 37° C. in a 5% CO2 air atmosphere. In addition, WI-38 normal cell line was used to investigate the safety of these compounds.
(§3) MTT assay was conducted to calculate the IC50 of the compounds following the reported procedure . Briefly, the cells were seeded in 96-well tissue culture plates with a density of 5×10^4 cells/well and incubated overnight at 37° C. in a 5% CO2 air atmosphere. […] DMSO was used as a negative control. After 48 h, the media were aspirated, and replaced with media containing 0.5 mg/mL of MTT tetrazolium dye (Sigma-Aldrich) for 2 h at 37° C. Finally, the media were removed and 200 μL of DMSO was added to solubilize the formazan crystals. Absorbance was then measured at 570 nm using Varioskan Flash multimode plate reader (Thermo Scientific, Massachusetts, USA).

M14 = assay: NCI-60 cell line panel: M14; conditions: Melanoma
Method: as §1

OVCAR-8 = assay: NCI-60 cell line panel: OVCAR-8; conditions: Ovarian Cancer
Method: as §1

SR = assay: NCI-60 cell line panel: SR; conditions: Leukemia
Method: as §1

SF-268 = assay: NCI-60 cell line panel: SF-268; conditions: CNS Cancer
Method: as §1

ACHN = assay: NCI-60 cell line panel: ACHN; conditions: Renal Cancer
Method: as §1

UACC-62 = assay: NCI-60 cell line panel: UACC-62; conditions: Melanoma
Method: as §1

RPMI-8226 = assay: NCI-60 cell line panel: RPMI-8226; conditions: Leukemia
Method: as §1

KM12 = assay: NCI-60 cell line panel: KM12; conditions: Colon Cancer
Method: as §1

HS 578T = assay: NCI-60 cell line panel: HS 578T
Method: as §1

HL-60(TB) = assay: NCI-60 cell line panel: HL-60(TB); set-up: TGI: unit not given here; conditions: Leukemia
Method: as §1

SK-MEL-5 = assay: NCI-60 cell line panel: SK-MEL-5; conditions: Melanoma
Method: as §1

DU-145 = assay: NCI-60 cell line panel: DU-145; conditions: Prostate Cancer
Method: as §1

HCT-15 = assay: NCI-60 cell line panel: HCT-15; conditions: Colon Cancer
Method: as §1

HepG2 = assay: MTT assay, HepG2 HCC cell line; conditions: Homo sapiens, 48 h, mean of triplicate assays ± SEM
Method: as §2, §3

SK-MEL-28 = assay: NCI-60 cell line panel: SK-MEL-28; conditions: Melanoma
Method: as §1

SW-620 = assay: NCI-60 cell line panel: SW-620; conditions: Colon Cancer
Method: as §1

RXF 393 = assay: NCI-60 cell line panel: RXF 393; conditions: Renal Cancer
Method: as §1

SK-OV-3 = assay: NCI-60 cell line panel: SK-OV-3; conditions: Ovarian Cancer
Method: as §1

A549/ATCC = assay: NCI-60 cell line panel: A549/ATCC; conditions: Non-Small Cell Lung Cancer
Method: as §1

LOX IMVI = assay: NCI-60 cell line panel: LOX IMVI; conditions: Melanoma
Method: as §1

786-0 = assay: NCI-60 cell line panel: 786-0; conditions: Renal Cancer
Method: as §1

NCI-H522 = assay: NCI-60 cell line panel: NCI-H522; set-up: TGI: unit not given here; conditions: Non-Small Cell Lung Cancer
Method: as §1

K-562 = assay: NCI-60 cell line panel: K-562; set-up: TGI: unit not given here
Method: as §1

HT29 = assay: NCI-60 cell line panel: HT29
Method: as §1

NCI-H322M = assay: NCI-60 cell line panel: NCI-H322M; conditions: Non-Small Cell Lung Cancer
Method: as §1

CCRF-CEM = assay: NCI-60 cell line panel: CCRF-CEM; conditions: Leukemia
Method: as §1

IGROV1 = assay: NCI-60 cell line panel: IGROV1
Method: as §1

HOP-92 = assay: NCI-60 cell line panel: HOP-92; set-up: TGI: unit not given here; conditions: Non-Small Cell Lung Cancer
Method: as §1

SN12C = assay: NCI-60 cell line panel: SN12C; conditions: Renal Cancer
Method: as §1

A498 = assay: NCI-60 cell line panel: A498; conditions: Renal Cancer
Method: as §1

MDA-MB-435 = assay: NCI-60 cell line panel: MDA-MB-435; set-up: TGI: unit not given here; conditions: Melanoma
Method: as §1

Compound: CNC(=O)c1cc(-c2ccc(NC(=O)Nc3ccc(N4CCN(C)CC4)c(C(F)(F)F)c3)cc2)nc2cccnc12 [Compound 13b, N-Methyl-2-(4-(3-(4-(4-methylpiperazin-1-yl)-3-(trifluoromethyl)phenyl)ureido)phenyl)-1,5-naphthyridine-4-carboxamide]
- TGI (HCC-2998; total growth inhibition): 34.6 µM
- IC50 (HCC-2998; Homo sapiens): 18 µM
- IC50 (Hep3B): 2.32 ± 0.02 µM
- IC50 (M14; Homo sapiens): 1.79 µM
- TGI (M14; total growth inhibition): 3.71 µM
- IC50 (OVCAR-8; Homo sapiens): 17.4 µM
- TGI (OVCAR-8; total growth inhibition, in µM (unit assumed)): 35.4
- IC50 (SR; Homo sapiens): 9.97 µM
- TGI (SR; total growth inhibition): 44.6 µM
- TGI (SF-268; total growth inhibition): 39.2 µM
- IC50 (SF-268; Homo sapiens): 17.5 µM
- IC50 (ACHN; Homo sapiens): 15.5 µM
- TGI (ACHN; total growth inhibition): 28.9 µM
- IC50 (UACC-62; Homo sapiens): 18.4 µM
- TGI (UACC-62; total growth inhibition): 33.9 µM
- IC50 (RPMI-8226; Homo sapiens): 3.85 µM
- TGI (RPMI-8226; total growth inhibition): 25 µM
- TGI (KM12; total growth inhibition): 43.3 µM
- IC50 (KM12; Homo sapiens): 17.4 µM
- TGI (HS 578T; Breast Cancer, HS 578T, total growth inhibition): 38.9 µM
- IC50 (HS 578T; Homo sapiens, Hs-578T): 15 µM
- IC50 (HL-60(TB); Homo sapiens): 16.2 µM
- TGI (HL-60(TB); total growth inhibition): 38.7
- IC50 (SK-MEL-5; Homo sapiens): 17.5 µM
- TGI (SK-MEL-5; total growth inhibition): 31.7 µM
- IC50 (DU-145; Homo sapiens): 17.6 µM
- TGI (DU-145; total growth inhibition): 35.6 µM
- TGI (HCT-15; total growth inhibition): 4.33 µM
- IC50 (HCT-15; Homo sapiens): 2.07 µM
- IC50 (HepG2): 1.48 ± 0.09 µM
- IC50 (SK-MEL-28; Homo sapiens): 1.67 µM
- TGI (SK-MEL-28; total growth inhibition): 3.11 µM
- TGI (SW-620; total growth inhibition): 4.62 µM
- IC50 (SW-620; Homo sapiens): 2.11 µM
- IC50 (RXF 393; Homo sapiens): 3.38 µM
- TGI (RXF 393; total growth inhibition): 15 µM
- IC50 (SK-OV-3; Homo sapiens): 18.5 µM
- TGI (SK-OV-3; total growth inhibition): 34.7 µM
- IC50 (A549/ATCC; Homo sapiens): 10.9 µM
- TGI (A549/ATCC; total growth inhibition): 24.3 µM
- IC50 (LOX IMVI; Homo sapiens): 0.66 µM
- TGI (LOX IMVI; total growth inhibition): 24.5 µM
- IC50 (786-0; Homo sapiens): 1.81 µM
- TGI (786-0; total growth inhibition): 3.52 µM
- IC50 (NCI-H522; Homo sapiens): 16.5 µM
- TGI (NCI-H522; total growth inhibition): 31.1
- IC50 (K-562; Homo sapiens, K562, Leukemia): 2.12 µM
- TGI (K-562; Leukemia, total growth inhibition): 5.35
- TGI (HT29; Colon Cancer, total growth inhibition): 4.19 µM
- IC50 (HT29; Homo sapiens, HT-29, Colon Cancer): 1.92 µM
- IC50 (NCI-H322M; Homo sapiens): 15.6 µM
- TGI (NCI-H322M; total growth inhibition): 29.8 µM
- IC50 (CCRF-CEM; Homo sapiens): 3.16 µM
- TGI (CCRF-CEM; total growth inhibition): 74.1 µM
- IC50 (IGROV1; Homo sapiens, IGROV-1, Ovarian Cancer): 17.7 µM
- TGI (IGROV1; Ovarian Cancer, total growth inhibition): 36.6 µM
- IC50 (HOP-92; Homo sapiens): 6.54 µM
- TGI (HOP-92; total growth inhibition): 100
- IC50 (SN12C; Homo sapiens): 16.7 µM
- TGI (SN12C; total growth inhibition): 34.7 µM
- IC50 (A498; Homo sapiens): ≥ 100 µM
- TGI (A498; total growth inhibition): 100 µM
- IC50 (MDA-MB-435; Homo sapiens): 1.75 µM
- TGI (MDA-MB-435; total growth inhibition): 3.27
